Values after ≈ are worked out from the molar mass of the structure shown. Active and inactive are the calls of the source. No cut-off for these calls is given here.
How the values were obtained:
Escherichia coli [1] = experiment: Antibacterial activity against Escherichia coli CCUGT at 256 ug/ml incubated for 18 to 24 hrs by CLSI based microdilution broth method; assay type: functional, organism-based; conditions: dose 256.0 µg/ml, time 18-24 hrs
Klebsiella pneumoniae [2] = experiment: Antibacterial activity against Klebsiella pneumoniae ATCC 13833 at 256 ug/ml incubated for 18 to 24 hrs by CLSI based microdilution broth method; assay type: functional, organism-based; conditions: dose 256.0 µg/ml, time 18-24 hrs
Acinetobacter baumannii [3] = experiment: Antibacterial activity against Acinetobacter baumannii ATCC 17978 at 256 ug/ml incubated for 18 to 24 hrs by CLSI based microdilution broth method; assay type: functional, organism-based; conditions: dose 256.0 µg/ml, time 18-24 hrs
Staphylococcus aureus = experiment: Antibacterial activity against Staphylococcus aureus ATCC 25923 incubated for 18 to 24 hrs by CLSI based microdilution broth method; assay type: functional; conditions: time 18-24 hrs
Streptococcus pyogenes = experiment: Antibacterial activity against Streptococcus pyogenes ATCC 12344 incubated for 18 to 24 hrs by CLSI based microdilution broth method; assay type: functional; conditions: time 18-24 hrs
Bacillus subtilis = experiment: Antibacterial activity against Bacillus subtilis ATCC 6633 incubated for 18 to 24 hrs by CLSI based microdilution broth method; assay type: functional; conditions: time 18-24 hrs
Pseudomonas aeruginosa [4] = experiment: Antibacterial activity against Pseudomonas aeruginosa ATCC 27853 at 256 ug/ml incubated for 18 to 24 hrs by CLSI based microdilution broth method; assay type: functional, organism-based; conditions: dose 256.0 µg/ml, time 18-24 hrs
Enterococcus faecalis = experiment: Antibacterial activity against Enterococcus faecalis ATCC 19433 incubated for 18 to 24 hrs by CLSI based microdilution broth method; assay type: functional; conditions: time 18-24 hrs
Klebsiella pneumoniae [5] = experiment: Antibacterial activity against Klebsiella pneumoniae ATCC 13833 incubated for 18 to 24 hrs by CLSI based microdilution broth method; assay type: functional; conditions: time 18-24 hrs
Klebsiella pneumoniae [6] = experiment: Synergistic antibacterial activity against Klebsiella pneumoniae ATCC 13833 assessed as potentiation fold by measuring MIC to MAC ratio incubated for 18 to 24 hrs in presence of colistin by CLSI based microdilution broth method; assay type: functional; conditions: time 18-24 hrs
Acinetobacter baumannii [7] = experiment: Synergistic antibacterial activity against Acinetobacter baumannii N50 assessed as potentiation fold by measuring MIC to MAC ratio incubated for 18 to 24 hrs in presence of colistin by CLSI based microdilution broth method; assay type: functional; conditions: time 18-24 hrs
Acinetobacter baumannii [8] = experiment: Synergistic antibacterial activity against Acinetobacter baumannii ATCC 17978 assessed as potentiation fold by measuring MIC to MAC ratio incubated for 18 to 24 hrs in presence of colistin by CLSI based microdilution broth method; assay type: functional; conditions: time 18-24 hrs
Escherichia coli [9] = experiment: Synergistic antibacterial activity against Escherichia coli CCUGT assessed as potentiation fold by measuring MIC to MAC ratio incubated for 18 to 24 hrs in presence of colistin by CLSI based microdilution broth method; assay type: functional; conditions: time 18-24 hrs
Acinetobacter baumannii [10] = experiment: Antibacterial activity against Acinetobacter baumannii ATCC 17978 incubated for 18 to 24 hrs by CLSI based microdilution broth method; assay type: functional; conditions: time 18-24 hrs; for MIC: Acinetobacter baumannii, ATCC 17978
Escherichia coli [11] = experiment: Antibacterial activity against Escherichia coli CCUGT incubated for 18 to 24 hrs by CLSI based microdilution broth method; assay type: functional; conditions: time 18-24 hrs
Acinetobacter baumannii [12] = experiment: Synergistic antibacterial activity against Acinetobacter baumannii ATCC 17978 incubated for 18 to 24 hrs in presence of colistin by CLSI based microdilution broth method; assay type: functional; conditions: time 18-24 hrs
Pseudomonas aeruginosa [13] = experiment: Synergistic antibacterial activity against Pseudomonas aeruginosa ATCC 27853 incubated for 18 to 24 hrs in presence of colistin by CLSI based microdilution broth method; assay type: functional; conditions: time 18-24 hrs
Pseudomonas aeruginosa [14] = experiment: Synergistic antibacterial activity against Pseudomonas aeruginosa ATCC 27853 assessed as potentiation fold by measuring MIC to MAC ratio incubated for 18 to 24 hrs in presence of colistin by CLSI based microdilution broth method; assay type: functional; conditions: time 18-24 hrs
Pseudomonas aeruginosa [15] = experiment: Antibacterial activity against Pseudomonas aeruginosa ATCC 27853 incubated for 18 to 24 hrs by CLSI based microdilution broth method; assay type: functional; conditions: time 18-24 hrs; for MIC: Pseudomonas aeruginosa, ATCC 27853
Acinetobacter baumannii [16] = experiment: Synergistic antibacterial activity against Acinetobacter baumannii N50 incubated for 18 to 24 hrs in presence of colistin by CLSI based microdilution broth method; assay type: functional; conditions: time 18-24 hrs
Klebsiella pneumoniae [17] = experiment: Synergistic antibacterial activity against Klebsiella pneumoniae ATCC 13833 incubated for 18 to 24 hrs in presence of colistin by CLSI based microdilution broth method; assay type: functional; conditions: time 18-24 hrs
Acinetobacter baumannii [18] = experiment: Antibacterial activity against Acinetobacter baumannii N50 incubated for 18 to 24 hrs by CLSI based microdilution broth method; assay type: functional; conditions: time 18-24 hrs
Escherichia coli [19] = experiment: Synergistic antibacterial activity against Escherichia coli CCUGT incubated for 18 to 24 hrs in presence of colistin by CLSI based microdilution broth method; assay type: functional; conditions: time 18-24 hrs
[20] = Klebsiella pneumoniae, ATCC 13833, read-out: MIC
[21] = Escherichia coli, CCUGT, read-out: MIC

SMILES | Activity (Acinetobacter baumannii [3]) | MIC (Staphylococcus aureus) [µg/mL] | MIC (Streptococcus pyogenes) [µg/mL] | MIC (Bacillus subtilis) [µg/mL] | Activity (Pseudomonas aeruginosa [4]) | MIC (Enterococcus faecalis) [µg/mL] | MIC (Klebsiella pneumoniae [5]; [20]) [µg/mL] | Ratio (Acinetobacter baumannii [7]) | Ratio (Acinetobacter baumannii [8]) | MIC (Acinetobacter baumannii [10]) [µg/mL] | MIC (Escherichia coli [11]; [21]) [µg/mL] | MAC (Acinetobacter baumannii [12]) [µg/mL] | MIC (Pseudomonas aeruginosa [15]) [µg/mL] | MAC (Acinetobacter baumannii [16]) [µg/mL] | MIC (Acinetobacter baumannii [18]) [µg/mL] | further results
N=C(NCCCCCCNC(N)=O)NCC1CC1.O=C(O)C(F)(F)F | inactive | 128 | 128 | 128 | inactive | 128 | – | – | – | – | – | – | – | – | – | Activity (Escherichia coli [1]): inactive; Activity (Klebsiella pneumoniae [2]): inactive
CCNC(=N)NCCCCCCCCNC(N)=O.O=C(O)C(F)(F)F | inactive | 32 | 64 | 64 | inactive | 128 | – | – | – | – | – | – | – | – | – | Activity (Escherichia coli [1]): inactive; Activity (Klebsiella pneumoniae [2]): inactive
N=C(N)NCCCCCCN(CCCCCCNC(=N)NCC1CC1)C(=O)N(CCCCCCNC(=N)N)CCCCCCNC(=N)NCC1CC1 | – | – | – | – | – | – | 32 (≈ 43.6 µM) | 1 | 128 | 128 (≈ 175 µM) | 16 (≈ 21.8 µM) | 1 | 256 (≈ 349 µM) | >256 | > 256 | Ratio (Klebsiella pneumoniae [6]): 2; Ratio (Escherichia coli [9]): 16; MAC (Pseudomonas aeruginosa [13]): 8 µg/mL; Ratio (Pseudomonas aeruginosa [14]): 32; MAC (Klebsiella pneumoniae [17]): 16 µg/mL; MAC (Escherichia coli [19]): 1 µg/mL
CCNC(=N)NCCCCCCCCN(CCCCCCCCNC(=N)NCC)C(=O)N(CCCCCCCCNC(=N)NCC)CCCCCCCCNC(=N)NCC | – | – | – | – | – | – | 4 (≈ 4.71 µM) | 256 | 32 | 16 (≈ 18.8 µM) | 2 (≈ 2.35 µM) | 0.5 | 64 (≈ 75.4 µM) | 0.25 | 64 (≈ 75.4 µM) | –
CC(C)NC(=N)NCCCCCCCCNC(N)=O.O=C(O)C(F)(F)F | inactive | 64 | 64 | 64 | inactive | 128 | – | – | – | – | – | – | – | – | – | Activity (Escherichia coli [1]): inactive; Activity (Klebsiella pneumoniae [2]): inactive
N=C(N)NCCCCCCCCN(CCCCCCCCN)C(=O)N(CCCCCCCCN)CCCCCCCCNC(=N)NCC1CC1 | – | – | – | – | – | – | – | 8 | 8 | – | – | 8 | – | 4 | 32 (≈ 45.3 µM) | MIC (Klebsiella pneumoniae [5]): 64 µg/mL (≈ 90.5 µM); Ratio (Klebsiella pneumoniae [6]): 2; Ratio (Escherichia coli [9]): 64; MAC (Acinetobacter baumannii [10]): 64 µg/mL; MIC (Escherichia coli [11]): 32 µg/mL (≈ 45.3 µM); MAC (Pseudomonas aeruginosa [13]): 8 µg/mL; Ratio (Pseudomonas aeruginosa [14]): 16; MAC (Pseudomonas aeruginosa [15]): 128 µg/mL; MAC (Klebsiella pneumoniae [17]): 32 µg/mL; MAC (Escherichia coli [19]): 0.5 µg/mL
CCNC(=N)NCCCCCCN(CCCCCCNC(=N)NCC1CC1)C(=O)N(CCCCCCNC(=N)NCC)CCCCCCNC(=N)NCC1CC1 | – | – | – | – | – | – | 16 (≈ 20.3 µM) | – | 16 | 64 (≈ 81.1 µM) | 8 (≈ 10.1 µM) | 4 | 128 (≈ 162 µM) | – | – | Ratio (Escherichia coli [9]): 1; MAC (Escherichia coli [19]): 8 µg/mL
CNC(=N)NCCCCCCCCNC(N)=O.O=C(O)C(F)(F)F | inactive | 32 | 64 | 128 | inactive | 128 | – | – | – | – | – | – | – | – | – | Activity (Escherichia coli [1]): inactive; Activity (Klebsiella pneumoniae [2]): inactive
N=C(N)NCCCCCCCCN(CCCCCCCCNC(=N)NCC1CC1)C(=O)NC(=N)NCCCCCCCCNCCCCCCCCNC(=N)NCC1CC1 | – | – | – | – | – | – | > 256 | >128 | >256 | > 64 | > 256 | 0.125 | > 256 | 0.5 | > 64 | Ratio (Klebsiella pneumoniae [6]): >256; Ratio (Escherichia coli [9]): >512; MAC (Pseudomonas aeruginosa [13]): 2 µg/mL; Ratio (Pseudomonas aeruginosa [14]): >128; MAC (Klebsiella pneumoniae [17]): 1 µg/mL; MAC (Escherichia coli [19]): 0.5 µg/mL
N=C(NCCCCCCCCN(CCCCCCCCNC(=N)NCC1CC1)C(=O)N(CCCCCCNC(=N)NCC1CC1)CCCCCCNC(=N)NCC1CC1)NCC1CC1 | – | – | – | – | – | – | 4 (≈ 4.46 µM) | 32 | 16 | 64 (≈ 71.3 µM) | 4 (≈ 4.46 µM) | 4 | 128 (≈ 143 µM) | 2 | 64 (≈ 71.3 µM) | MAC (Pseudomonas aeruginosa [13]): 128 µg/mL; Ratio (Pseudomonas aeruginosa [14]): 1
CCCNC(=N)NCCCCCCCCN(CCCCCCCCNC(=N)N)C(=O)N(CCCCCCCCNC(=N)N)CCCCCCCCNC(=N)NCCC.O=C(O)C(F)(F)F | – | 0.5 | 1 | 1 | – | 1 | 1 | – | – | 8 | 0.5 | – | 8 | – | – | –
N=C(N)NCCCCCCCCN(CCCCCCCCNC(=N)NCC1CC1)C(=O)N(CCCCCCCCNC(=N)NCC1CC1)CCCCCCNC(=N)N.O=C(O)C(F)(F)F | – | 0.25 | 0.5 | 0.5 | – | 1 | 1 | – | – | 16 | 1 | – | 16 | – | – | –
N=C(N)NCCCCCCCCN(CCCCCCCCNC(=N)NCC1CC1)C(=O)N(CCCCCCNC(=N)N)CCCCCCNC(=N)NCC1CC1.O=C(O)C(F)(F)F | – | 0.5 | 1 | 2 | – | 4 | 4 | – | – | 16 | 8 | – | 16 | – | – | –
COCCNC(=N)NCCCCCCCCN(CCCCCCCCNC(=N)N)C(=O)N(CCCCCCCCNC(=N)N)CCCCCCCCNC(=N)NCCOC.O=C(O)C(F)(F)F | – | 0.5 | 0.5 | 0.5 | – | 1 | 2 | – | – | 8 | 1 | – | 16 | – | – | –
C/C=C/CNC(=N)NCCCCCCCCNC(N)=O.O=C(O)C(F)(F)F | inactive | 32 | 32 | 64 | inactive | 64 | 128 | – | – | – | 128 | – | – | – | – | –
